From ChEMBL document CHEMBL1201862, “PubChem BioAssay data set” (2004)
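Where inhibition never reached the appropriate level, the endpoint shown equals the highest concentration tested. Otherwise, values were interpolated linearly from a five-concentration, 48-hour dose response in 96-well plates. GI50 is the concentration that inhibits growth by half.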 Active and inactive are the calls of the source. Rule as the data show it: active = GI50 up to about 1.1 µM and inactive = higher.

Key:
Assay in all cases: growth of human tumour cells (NCI), 48 h
[1] = system: OVCAR-4
[2] = system: Malme-3M
[3] = system: M14
[4] = system: MDA-MB-231
[5] = system: SF-268
[6] = system: EKVX
[7] = system: A549
[8] = system: U-251
[9] = system: CCRF-CEM
[10] = system: UACC-62
[11] = system: NCI/ADR-RES
[12] = system: Hs-578T
[13] = system: IGROV-1
[14] = system: SF-539
[15] = system: OVCAR-8
[16] = system: UO-31
[17] = system: COLO 205
[18] = system: SK-OV-3
[19] = system: RPMI-8226
[20] = system: HL-60

Row | SMILES | GI50 [1] | GI50 [2] | GI50 [3] | GI50 [4] | GI50 [5] | GI50 [6] | GI50 [7] | GI50 [8] | GI50 [9] | GI50 [10] | GI50 [11] | GI50 [12] | GI50 [13] | GI50 [14] | GI50 [15] | GI50 [16] | GI50 [17] | GI50 [18] | GI50 [19] | GI50 [20]
1 | CNC(=O)/C(=C/c1ccc(OC)cc1)c1cc(OC)c(OC)c(OC)c1 | 21.3 µM (inactive) | 0.887 µM (active) | 1.45 µM (inactive) | 6.14 µM (inactive) | 4.83 µM (inactive) | 10.1 µM (inactive) | 1.69 µM (inactive) | 2.81 µM (inactive) | 2.32 µM (inactive) | 0.67 µM (active) | 1.98 µM (inactive) | 1.61 µM (inactive) | 4.76 µM (inactive) | 1.34 µM (inactive) | 4.12 µM (inactive) | 6.44 µM (inactive) | 1.16 µM (inactive) | 1.6 µM (inactive) | 2.99 µM (inactive) | 0.493 µM (active)
2 | C=C(Cl)C(C)(Cl)CCC(Cl)C(C)C (stereo not drawn) | > 100 µM (inactive) | > 100 µM (inactive) | 57.7 µM (inactive) | > 100 µM (inactive) | > 100 µM (inactive) | > 100 µM (inactive) | > 100 µM (inactive) | > 100 µM (inactive) | 38.7 µM (inactive) | > 100 µM (inactive) | > 100 µM (inactive) | > 100 µM (inactive) | > 100 µM (inactive) | > 100 µM (inactive) |  | > 100 µM (inactive) | > 100 µM (inactive) | 29.6 µM (inactive) | 48.6 µM (inactive) | 44.3 µM (inactive)
3 | CCCCOC(=O)C1CN2C=CC=NC2=NC1(C(F)(F)F)C(F)(F)F (stereo not drawn) | > 100 µM (inactive) | > 100 µM (inactive) | > 100 µM (inactive) | > 100 µM (inactive) | > 100 µM (inactive) | 72.6 µM (inactive) | > 100 µM (inactive) | > 100 µM (inactive) | > 100 µM (inactive) | > 100 µM (inactive) | > 100 µM (inactive) | > 100 µM (inactive) | > 100 µM (inactive) | > 100 µM (inactive) | > 100 µM (inactive) | > 100 µM (inactive) | > 100 µM (inactive) | > 100 µM (inactive) | > 100 µM (inactive) | > 100 µM (inactive)
4 | COC(=O)CCc1ccc(CCC(=O)OC)cc1 | > 100 µM (inactive) | > 100 µM (inactive) | > 100 µM (inactive) | > 100 µM (inactive) | > 100 µM (inactive) | > 100 µM (inactive) | > 100 µM (inactive) | > 100 µM (inactive) | > 100 µM (inactive) |  | > 100 µM (inactive) | > 100 µM (inactive) | > 100 µM (inactive) | > 100 µM (inactive) | > 100 µM (inactive) | > 100 µM (inactive) |  | > 100 µM (inactive) | > 100 µM (inactive) | > 100 µM (inactive)
5 | Cc1nc(O)nc2nc3ccc(Cl)cc3c(NC(C)(CO)CO)c12 | > 57 µM (inactive) | > 100 µM (inactive) | > 100 µM (inactive) | 31.6 µM (inactive) | 40.6 µM (inactive) | 24.9 µM (inactive) | > 34.4 µM (inactive) | 36.8 µM (inactive) | > 26.8 µM (inactive) | > 75.3 µM (inactive) | > 100 µM (inactive) | 46.9 µM (inactive) | 49.9 µM (inactive) | > 50.6 µM (inactive) | 72.3 µM (inactive) | 4.49 µM (inactive) | > 100 µM (inactive) | 36.9 µM (inactive) | 30.8 µM (inactive) | > 100 µM (inactive)
6 | CCc1ccc(Nc2cc(=O)n(C)c(SCc3ccccc3)n2)cc1 |  | 57.3 µM (inactive) | > 100 µM (inactive) | 59.7 µM (inactive) | 97.7 µM (inactive) | 60.5 µM (inactive) | 29 µM (inactive) |  | 78 µM (inactive) | > 100 µM (inactive) | > 100 µM (inactive) | 97.3 µM (inactive) | 83.9 µM (inactive) | 30.2 µM (inactive) | > 100 µM (inactive) | > 100 µM (inactive) | 12.7 µM (inactive) | 85.1 µM (inactive) | > 10 µM (inactive) | 39.8 µM (inactive)
7 | O=C(O)COc1cc(-c2ccccc2)nc2cc(F)ccc12 | > 100 µM (inactive) | > 100 µM (inactive) | > 100 µM (inactive) | > 100 µM (inactive) | > 100 µM (inactive) | > 100 µM (inactive) | > 100 µM (inactive) | > 100 µM (inactive) | > 100 µM (inactive) | > 100 µM (inactive) | > 100 µM (inactive) | > 100 µM (inactive) | > 100 µM (inactive) | > 100 µM (inactive) | > 100 µM (inactive) | 64.7 µM (inactive) | > 100 µM (inactive) | > 100 µM (inactive) | > 100 µM (inactive) | > 100 µM (inactive)
8 | CC(C)(C(=O)N(C(=O)N1CCN(c2ccccc2)CC1)S(=O)(=O)c1ccccc1)c1ccc(Cl)cc1 | 28.1 µM (inactive) | 90.4 µM (inactive) | 31.3 µM (inactive) | 31.7 µM (inactive) | 34.4 µM (inactive) | 13.5 µM (inactive) | 33.7 µM (inactive) | 6.32 µM (inactive) | 3.94 µM (inactive) | 40.6 µM (inactive) | 6.92 µM (inactive) | 39.1 µM (inactive) |  | 61.8 µM (inactive) | 16.6 µM (inactive) | 15.3 µM (inactive) | 20.7 µM (inactive) | 24 µM (inactive) | 6.95 µM (inactive) | 24.8 µM (inactive)
9 | Cc1c2ccccc2c(C)n2c1nc1cc3ccccc3cc12 | 1.56 µM (inactive) | 1.28 µM (inactive) | 1.38 µM (inactive) | 1.36 µM (inactive) | 1.34 µM (inactive) | 1.64 µM (inactive) | 1.86 µM (inactive) | 1.65 µM (inactive) | 1.57 µM (inactive) | 1.49 µM (inactive) | 0.897 µM (active) | 1.25 µM (inactive) | 1.04 µM (active) | 1.34 µM (inactive) | 1.04 µM (active) |  | 1.34 µM (inactive) | 2.45 µM (inactive) | 2.2 µM (inactive) | 2.5 µM (inactive)
10 | Cc1nc2cc([N+](=O)[O-])ccc2c(NCCCN(C)C)c1C | 3.03 µM (inactive) | 6.22 µM (inactive) | 13.8 µM (inactive) | 3.34 µM (inactive) | 20.3 µM (inactive) |  | 6.21 µM (inactive) | 18.8 µM (inactive) | 28.9 µM (inactive) | 15.6 µM (inactive) | 16.3 µM (inactive) | 20 µM (inactive) | 3.22 µM (inactive) | 13.7 µM (inactive) | 11.5 µM (inactive) | 14.7 µM (inactive) | 2.56 µM (inactive) | 31.5 µM (inactive) | 12.9 µM (inactive) | 28.8 µM (inactive)
11 | CSCCC(NC(=O)Cc1ccc(C(=O)c2ccccc2)cc1)C(=O)O (stereo not drawn) | > 100 µM (inactive) | > 100 µM (inactive) | > 100 µM (inactive) | > 100 µM (inactive) | > 100 µM (inactive) | > 100 µM (inactive) | > 100 µM (inactive) | > 100 µM (inactive) | > 100 µM (inactive) | > 100 µM (inactive) | > 100 µM (inactive) | > 100 µM (inactive) | > 100 µM (inactive) | > 100 µM (inactive) | > 100 µM (inactive) | > 100 µM (inactive) | > 100 µM (inactive) | > 100 µM (inactive) |  | > 100 µM (inactive)
12 | CN(C)/C=C(\C(=O)c1ccccc1)n1nc(-c2ccccc2)cc1-c1ccccc1 | > 10 µM (inactive) | > 10 µM (inactive) | > 10 µM (inactive) | > 10 µM (inactive) | > 10 µM (inactive) | > 10 µM (inactive) | > 10 µM (inactive) | > 10 µM (inactive) | > 10 µM (inactive) | > 10 µM (inactive) | > 10 µM (inactive) | > 10 µM (inactive) | > 10 µM (inactive) | > 10 µM (inactive) | > 10 µM (inactive) |  | > 10 µM (inactive) | > 10 µM (inactive) | > 10 µM (inactive) | > 10 µM (inactive)
13 | O=C1c2ccccc2S(=O)(=O)c2cc(-c3nn[nH]n3)ccc21 [DOXANTRAZOLE] | > 100 µM (inactive) | > 100 µM (inactive) | > 100 µM (inactive) | > 100 µM (inactive) | > 100 µM (inactive) | > 100 µM (inactive) | > 100 µM (inactive) | > 100 µM (inactive) | > 100 µM (inactive) | > 100 µM (inactive) | > 100 µM (inactive) | > 100 µM (inactive) | > 95.3 µM (inactive) | > 100 µM (inactive) | > 100 µM (inactive) | > 100 µM (inactive) | > 100 µM (inactive) | > 100 µM (inactive) |  | > 100 µM (inactive)
14 | CCOc1ccncc1[N+](=O)[O-] |  | > 100 µM (inactive) | > 100 µM (inactive) | > 100 µM (inactive) | > 100 µM (inactive) | > 100 µM (inactive) | > 100 µM (inactive) | > 100 µM (inactive) | > 100 µM (inactive) | > 100 µM (inactive) | > 100 µM (inactive) | > 100 µM (inactive) | > 100 µM (inactive) | > 100 µM (inactive) | > 100 µM (inactive) | > 100 µM (inactive) | > 10 µM (inactive) | > 100 µM (inactive) | > 100 µM (inactive) | > 100 µM (inactive)
